System: Streptococcus pyogenes
Experiment: Antimicrobial activity against Streptococcus pyogenes […] by NCCLS method
Format: functional

Row | SMILES | MIC [µg/mL]
1 | C=C[C@]1(C)C[C@@H](OC(=O)CS[C@@H]2CCN(C(=O)CCn3cnc4c(N5CCNCC5)nc(N)nc43)C2)[C@]2(C)[C@H](C)CC[C@]3(CCC(=O)[C@@H]32)[C@@H](C)[C@@H]1O.Cl | 0.032
2 | C=C[C@]1(C)C[C@@H](OC(=O)CSCCN(C)C(=O)CCn2cnc3c(N4CCC(N)C4)ncnc32)[C@]2(C)[C@H](C)CC[C@]3(CCC(=O)[C@@H]32)[C@@H](C)[C@@H]1O.Cl (stereo not given in full) | ≤ 0.004
3 | C=C[C@]1(C)C[C@@H](OC(=O)CSC2CCN(C(=O)CCn3cnc4c(N5CCNCC5)nc(N)nc43)CC2)[C@]2(C)[C@H](C)CC[C@]3(CCC(=O)[C@@H]32)[C@@H](C)[C@@H]1O.Cl | 0.032
4 | CC[C@]1(C)C[C@@H](OC(=O)CS(=O)(=O)C2CCN(C(=O)CCn3cnc4c(N5CCC(N)C5)ncnc43)CC2)[C@]2(C)[C@H](C)CC[C@]3(CCC(=O)[C@@H]32)[C@@H](C)[C@@H]1O.Cl (stereo not given in full) | 0.032
5 | C=C[C@]1(C)C[C@@H](OC(=O)CS[C@H]2CCN(C(=O)CCn3cnc4c(N5CCNCC5)nc(N)nc43)C2)[C@]2(C)[C@H](C)CC[C@]3(CCC(=O)[C@@H]32)[C@@H](C)[C@@H]1O.Cl | 0.016

System: Streptococcus pneumoniae
Experiment: Antimicrobial activity against penicillin-resistant Streptococcus pneumoniae KT2524 by NCCLS method
Format: functional

Row | SMILES | MIC [µg/mL]
6 | C=C[C@]1(C)C[C@@H](OC(=O)CS[C@@H]2CCN(C(=O)CCn3cnc4c(N5CCNCC5)nc(N)nc43)C2)[C@]2(C)[C@H](C)CC[C@]3(CCC(=O)[C@@H]32)[C@@H](C)[C@@H]1O.Cl | 0.125
7 | C=C[C@]1(C)C[C@@H](OC(=O)CSCCN(C)C(=O)CCn2cnc3c(N4CCC(N)C4)ncnc32)[C@]2(C)[C@H](C)CC[C@]3(CCC(=O)[C@@H]32)[C@@H](C)[C@@H]1O.Cl (stereo not given in full) | 0.016
8 | C=C[C@]1(C)C[C@@H](OC(=O)CSC2CCN(C(=O)CCn3cnc4c(N5CCNCC5)nc(N)nc43)CC2)[C@]2(C)[C@H](C)CC[C@]3(CCC(=O)[C@@H]32)[C@@H](C)[C@@H]1O.Cl | 0.063
9 | CC[C@]1(C)C[C@@H](OC(=O)CS(=O)(=O)C2CCN(C(=O)CCn3cnc4c(N5CCC(N)C5)ncnc43)CC2)[C@]2(C)[C@H](C)CC[C@]3(CCC(=O)[C@@H]32)[C@@H](C)[C@@H]1O.Cl (stereo not given in full) | 0.125
10 | C=C[C@]1(C)C[C@@H](OC(=O)CS[C@H]2CCN(C(=O)CCn3cnc4c(N5CCNCC5)nc(N)nc43)C2)[C@]2(C)[C@H](C)CC[C@]3(CCC(=O)[C@@H]32)[C@@H](C)[C@@H]1O.Cl | 0.125

System: Staphylococcus aureus
Experiment: Antimicrobial activity against methicillin-susceptible Staphylococcus aureus Smith by NCCLS method
Format: functional

Row | SMILES | MIC [µg/mL]
11 | C=C[C@]1(C)C[C@@H](OC(=O)CS[C@@H]2CCN(C(=O)CCn3cnc4c(N5CCNCC5)nc(N)nc43)C2)[C@]2(C)[C@H](C)CC[C@]3(CCC(=O)[C@@H]32)[C@@H](C)[C@@H]1O.Cl | 0.05
12 | C=C[C@]1(C)C[C@@H](OC(=O)CSCCN(C)C(=O)CCn2cnc3c(N4CCC(N)C4)ncnc32)[C@]2(C)[C@H](C)CC[C@]3(CCC(=O)[C@@H]32)[C@@H](C)[C@@H]1O.Cl (stereo not given in full) | 0.25
13 | C=C[C@]1(C)C[C@@H](OC(=O)CSC2CCN(C(=O)CCn3cnc4c(N5CCNCC5)nc(N)nc43)CC2)[C@]2(C)[C@H](C)CC[C@]3(CCC(=O)[C@@H]32)[C@@H](C)[C@@H]1O.Cl | 0.25
14 | CC[C@]1(C)C[C@@H](OC(=O)CS(=O)(=O)C2CCN(C(=O)CCn3cnc4c(N5CCC(N)C5)ncnc43)CC2)[C@]2(C)[C@H](C)CC[C@]3(CCC(=O)[C@@H]32)[C@@H](C)[C@@H]1O.Cl (stereo not given in full) | 0.5
15 | C=C[C@]1(C)C[C@@H](OC(=O)CS[C@H]2CCN(C(=O)CCn3cnc4c(N5CCNCC5)nc(N)nc43)C2)[C@]2(C)[C@H](C)CC[C@]3(CCC(=O)[C@@H]32)[C@@H](C)[C@@H]1O.Cl | 0.5

System: Staphylococcus aureus
Experiment: Antimicrobial activity against methicillin-resistant Staphylococcus aureus KMP9
Format: functional

Row | SMILES | MIC [µg/mL]
16 | C=C[C@]1(C)C[C@@H](OC(=O)CS[C@@H]2CCN(C(=O)CCn3cnc4c(N5CCNCC5)nc(N)nc43)C2)[C@]2(C)[C@H](C)CC[C@]3(CCC(=O)[C@@H]32)[C@@H](C)[C@@H]1O.Cl | 2
17 | C=C[C@]1(C)C[C@@H](OC(=O)CSCCN(C)C(=O)CCn2cnc3c(N4CCC(N)C4)ncnc32)[C@]2(C)[C@H](C)CC[C@]3(CCC(=O)[C@@H]32)[C@@H](C)[C@@H]1O.Cl (stereo not given in full) | 0.5
18 | C=C[C@]1(C)C[C@@H](OC(=O)CSC2CCN(C(=O)CCn3cnc4c(N5CCNCC5)nc(N)nc43)CC2)[C@]2(C)[C@H](C)CC[C@]3(CCC(=O)[C@@H]32)[C@@H](C)[C@@H]1O.Cl | 0.5
19 | CC[C@]1(C)C[C@@H](OC(=O)CS(=O)(=O)C2CCN(C(=O)CCn3cnc4c(N5CCC(N)C5)ncnc43)CC2)[C@]2(C)[C@H](C)CC[C@]3(CCC(=O)[C@@H]32)[C@@H](C)[C@@H]1O.Cl (stereo not given in full) | 2
20 | C=C[C@]1(C)C[C@@H](OC(=O)CS[C@H]2CCN(C(=O)CCn3cnc4c(N5CCNCC5)nc(N)nc43)C2)[C@]2(C)[C@H](C)CC[C@]3(CCC(=O)[C@@H]32)[C@@H](C)[C@@H]1O.Cl | 1

System: Streptococcus pneumoniae
Experiment: Antimicrobial activity against penicillin-susceptible Streptococcus pneumoniae ATCC 49619 by NCCLS method
Format: functional

Row | SMILES | MIC [µg/mL]
21 | C=C[C@]1(C)C[C@@H](OC(=O)CS[C@@H]2CCN(C(=O)CCn3cnc4c(N5CCNCC5)nc(N)nc43)C2)[C@]2(C)[C@H](C)CC[C@]3(CCC(=O)[C@@H]32)[C@@H](C)[C@@H]1O.Cl | 0.063
22 | C=C[C@]1(C)C[C@@H](OC(=O)CSCCN(C)C(=O)CCn2cnc3c(N4CCC(N)C4)ncnc32)[C@]2(C)[C@H](C)CC[C@]3(CCC(=O)[C@@H]32)[C@@H](C)[C@@H]1O.Cl (stereo not given in full) | 0.016
23 | C=C[C@]1(C)C[C@@H](OC(=O)CSC2CCN(C(=O)CCn3cnc4c(N5CCNCC5)nc(N)nc43)CC2)[C@]2(C)[C@H](C)CC[C@]3(CCC(=O)[C@@H]32)[C@@H](C)[C@@H]1O.Cl | 0.063
24 | CC[C@]1(C)C[C@@H](OC(=O)CS(=O)(=O)C2CCN(C(=O)CCn3cnc4c(N5CCC(N)C5)ncnc43)CC2)[C@]2(C)[C@H](C)CC[C@]3(CCC(=O)[C@@H]32)[C@@H](C)[C@@H]1O.Cl (stereo not given in full) | 0.063
25 | C=C[C@]1(C)C[C@@H](OC(=O)CS[C@H]2CCN(C(=O)CCn3cnc4c(N5CCNCC5)nc(N)nc43)C2)[C@]2(C)[C@H](C)CC[C@]3(CCC(=O)[C@@H]32)[C@@H](C)[C@@H]1O.Cl | 0.063

System: Enterococcus faecium
Experiment: Antimicrobial activity against vancomycin-resistant Enterococcus faecium KU1778 by NCCLS method
Format: functional

Row | SMILES | MIC [µg/mL]
26 | C=C[C@]1(C)C[C@@H](OC(=O)CS[C@@H]2CCN(C(=O)CCn3cnc4c(N5CCNCC5)nc(N)nc43)C2)[C@]2(C)[C@H](C)CC[C@]3(CCC(=O)[C@@H]32)[C@@H](C)[C@@H]1O.Cl | 0.5
27 | C=C[C@]1(C)C[C@@H](OC(=O)CSCCN(C)C(=O)CCn2cnc3c(N4CCC(N)C4)ncnc32)[C@]2(C)[C@H](C)CC[C@]3(CCC(=O)[C@@H]32)[C@@H](C)[C@@H]1O.Cl (stereo not given in full) | 0.063
28 | C=C[C@]1(C)C[C@@H](OC(=O)CSC2CCN(C(=O)CCn3cnc4c(N5CCNCC5)nc(N)nc43)CC2)[C@]2(C)[C@H](C)CC[C@]3(CCC(=O)[C@@H]32)[C@@H](C)[C@@H]1O.Cl | 0.125
29 | CC[C@]1(C)C[C@@H](OC(=O)CS(=O)(=O)C2CCN(C(=O)CCn3cnc4c(N5CCC(N)C5)ncnc43)CC2)[C@]2(C)[C@H](C)CC[C@]3(CCC(=O)[C@@H]32)[C@@H](C)[C@@H]1O.Cl (stereo not given in full) | 1
30 | C=C[C@]1(C)C[C@@H](OC(=O)CS[C@H]2CCN(C(=O)CCn3cnc4c(N5CCNCC5)nc(N)nc43)C2)[C@]2(C)[C@H](C)CC[C@]3(CCC(=O)[C@@H]32)[C@@H](C)[C@@H]1O.Cl | 0.25

System: Moraxella catarrhalis
Experiment: Antimicrobial activity against Moraxella catarrhalis K1209 by NCCLS method
Format: functional

Row | SMILES | MIC [µg/mL]
31 | C=C[C@]1(C)C[C@@H](OC(=O)CS[C@@H]2CCN(C(=O)CCn3cnc4c(N5CCNCC5)nc(N)nc43)C2)[C@]2(C)[C@H](C)CC[C@]3(CCC(=O)[C@@H]32)[C@@H](C)[C@@H]1O.Cl | 0.25
32 | C=C[C@]1(C)C[C@@H](OC(=O)CSCCN(C)C(=O)CCn2cnc3c(N4CCC(N)C4)ncnc32)[C@]2(C)[C@H](C)CC[C@]3(CCC(=O)[C@@H]32)[C@@H](C)[C@@H]1O.Cl (stereo not given in full) | 0.125
33 | C=C[C@]1(C)C[C@@H](OC(=O)CSC2CCN(C(=O)CCn3cnc4c(N5CCNCC5)nc(N)nc43)CC2)[C@]2(C)[C@H](C)CC[C@]3(CCC(=O)[C@@H]32)[C@@H](C)[C@@H]1O.Cl | 0.25
34 | CC[C@]1(C)C[C@@H](OC(=O)CS(=O)(=O)C2CCN(C(=O)CCn3cnc4c(N5CCC(N)C5)ncnc43)CC2)[C@]2(C)[C@H](C)CC[C@]3(CCC(=O)[C@@H]32)[C@@H](C)[C@@H]1O.Cl (stereo not given in full) | 0.125
35 | C=C[C@]1(C)C[C@@H](OC(=O)CS[C@H]2CCN(C(=O)CCn3cnc4c(N5CCNCC5)nc(N)nc43)C2)[C@]2(C)[C@H](C)CC[C@]3(CCC(=O)[C@@H]32)[C@@H](C)[C@@H]1O.Cl | 0.25

System: Haemophilus influenzae
Experiment: Antimicrobial activity against Haemophilus influenzae TH13 by NCCLS method
Format: functional

Row | SMILES | MIC [µg/mL]
36 | C=C[C@]1(C)C[C@@H](OC(=O)CS[C@@H]2CCN(C(=O)CCn3cnc4c(N5CCNCC5)nc(N)nc43)C2)[C@]2(C)[C@H](C)CC[C@]3(CCC(=O)[C@@H]32)[C@@H](C)[C@@H]1O.Cl | 2
37 | C=C[C@]1(C)C[C@@H](OC(=O)CSCCN(C)C(=O)CCn2cnc3c(N4CCC(N)C4)ncnc32)[C@]2(C)[C@H](C)CC[C@]3(CCC(=O)[C@@H]32)[C@@H](C)[C@@H]1O.Cl (stereo not given in full) | 2
38 | C=C[C@]1(C)C[C@@H](OC(=O)CSC2CCN(C(=O)CCn3cnc4c(N5CCNCC5)nc(N)nc43)CC2)[C@]2(C)[C@H](C)CC[C@]3(CCC(=O)[C@@H]32)[C@@H](C)[C@@H]1O.Cl | 1
39 | CC[C@]1(C)C[C@@H](OC(=O)CS(=O)(=O)C2CCN(C(=O)CCn3cnc4c(N5CCC(N)C5)ncnc43)CC2)[C@]2(C)[C@H](C)CC[C@]3(CCC(=O)[C@@H]32)[C@@H](C)[C@@H]1O.Cl (stereo not given in full) | 4
40 | C=C[C@]1(C)C[C@@H](OC(=O)CS[C@H]2CCN(C(=O)CCn3cnc4c(N5CCNCC5)nc(N)nc43)C2)[C@]2(C)[C@H](C)CC[C@]3(CCC(=O)[C@@H]32)[C@@H](C)[C@@H]1O.Cl | 2

System: Staphylococcus aureus
Experiment: Antimicrobial activity against methicillin-susceptible Staphylococcus aureus infected mouse assessed as survival rate administered iv after 1 hr of infection
Format: functional

Row | SMILES | ED50 [mg/kg]
41 | C=C[C@]1(C)C[C@@H](OC(=O)CS[C@@H]2CCN(C(=O)CCn3cnc4c(N5CCNCC5)nc(N)nc43)C2)[C@]2(C)[C@H](C)CC[C@]3(CCC(=O)[C@@H]32)[C@@H](C)[C@@H]1O.Cl | 1.28
42 | C=C[C@]1(C)C[C@@H](OC(=O)CSCCN(C)C(=O)CCn2cnc3c(N4CCC(N)C4)ncnc32)[C@]2(C)[C@H](C)CC[C@]3(CCC(=O)[C@@H]32)[C@@H](C)[C@@H]1O.Cl (stereo not given in full) | 1.76
43 | C=C[C@]1(C)C[C@@H](OC(=O)CSC2CCN(C(=O)CCn3cnc4c(N5CCNCC5)nc(N)nc43)CC2)[C@]2(C)[C@H](C)CC[C@]3(CCC(=O)[C@@H]32)[C@@H](C)[C@@H]1O.Cl | 1.86
44 | CC[C@]1(C)C[C@@H](OC(=O)CS(=O)(=O)C2CCN(C(=O)CCn3cnc4c(N5CCC(N)C5)ncnc43)CC2)[C@]2(C)[C@H](C)CC[C@]3(CCC(=O)[C@@H]32)[C@@H](C)[C@@H]1O.Cl (stereo not given in full) | 1.79
45 | C=C[C@]1(C)C[C@@H](OC(=O)CS[C@H]2CCN(C(=O)CCn3cnc4c(N5CCNCC5)nc(N)nc43)C2)[C@]2(C)[C@H](C)CC[C@]3(CCC(=O)[C@@H]32)[C@@H](C)[C@@H]1O.Cl | 3.16
